In the kinase profiling compilation of Christmann-Franck et al. (2016):

Columns and labels:
Assay in all cases: KINOMEscan competition binding
Conditions in all cases: compound 10.0 µM
ACVR1 (human) = ACVR1 (human) (UniProt Q04771)
ACVR1B (human) = ACVR1B (human) (UniProt P36896)
ACVR2A (human) = ACVR2A (human) (UniProt P27037)
AKT2 (human) = AKT2 (human) (UniProt P31751)
ALK (human) = ALK (human) (UniProt Q9UM73)
AURKB (human) = AURKB (human) (UniProt Q96GD4)
BMPR1A (human) = BMPR1A (human) (UniProt P36894)
CAMKK2 (human) = CAMKK2 (human) (UniProt Q96RR4)
CDK5 (human) = CDK5 (human) (UniProt Q00535)
CHUK (human) = CHUK (human) (UniProt O15111)
DMPK (human) = DMPK (human) (UniProt Q09013)
DYRK1A (human) = DYRK1A (human) (UniProt Q13627)
EIF2AK1 (human) = EIF2AK1 (human) (UniProt Q9BQI3)
Chain of EIF2AK1 (human) (Q9BQI3 whole entry, looked up): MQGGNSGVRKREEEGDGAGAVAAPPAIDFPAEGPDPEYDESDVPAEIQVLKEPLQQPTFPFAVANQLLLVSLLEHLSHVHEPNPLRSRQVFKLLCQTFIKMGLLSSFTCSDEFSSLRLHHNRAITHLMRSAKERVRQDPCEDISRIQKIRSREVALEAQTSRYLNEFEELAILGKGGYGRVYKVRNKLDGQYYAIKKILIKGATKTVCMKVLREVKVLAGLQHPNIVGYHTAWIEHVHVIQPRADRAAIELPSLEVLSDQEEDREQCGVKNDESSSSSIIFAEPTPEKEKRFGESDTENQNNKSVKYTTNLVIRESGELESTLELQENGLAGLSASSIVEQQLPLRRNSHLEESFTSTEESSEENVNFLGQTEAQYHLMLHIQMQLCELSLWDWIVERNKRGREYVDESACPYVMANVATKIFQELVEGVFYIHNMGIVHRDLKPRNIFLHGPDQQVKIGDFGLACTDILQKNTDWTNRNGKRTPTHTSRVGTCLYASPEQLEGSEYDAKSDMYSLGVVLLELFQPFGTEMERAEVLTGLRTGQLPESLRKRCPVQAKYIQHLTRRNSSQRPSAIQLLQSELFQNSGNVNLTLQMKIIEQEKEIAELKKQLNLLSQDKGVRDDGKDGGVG

ERBB3 (human) = ERBB3 (human) (UniProt P21860)
FGFR1 (human) = FGFR1 (human) (UniProt P11362)
FLT3 (human) = FLT3 (human) (UniProt P36888)
[1] = tested on: FLT3 (human), P36888 [R834Q]
GAK (human) = GAK (human) (UniProt O14976)
GSK3B (human) = GSK3B (human) (UniProt P49841)
HIPK3 (human) = HIPK3 (human) (UniProt Q9H422)
INSR (human) = INSR (human) (UniProt P06213)
[2] = biological target: JAK1 JH1 catalytic (human) (UniProt P23458)
LATS2 (human) = LATS2 (human) (UniProt Q9NRM7)
MAP3K1 (human) = MAP3K1 (human) (UniProt Q13233)
MAP3K5 (human) = MAP3K5 (human) (UniProt Q99683)
MST4 (human) = MST4 (human) (UniProt Q9P289)
Chain of MST4 (human) (Q9P289 whole entry, looked up): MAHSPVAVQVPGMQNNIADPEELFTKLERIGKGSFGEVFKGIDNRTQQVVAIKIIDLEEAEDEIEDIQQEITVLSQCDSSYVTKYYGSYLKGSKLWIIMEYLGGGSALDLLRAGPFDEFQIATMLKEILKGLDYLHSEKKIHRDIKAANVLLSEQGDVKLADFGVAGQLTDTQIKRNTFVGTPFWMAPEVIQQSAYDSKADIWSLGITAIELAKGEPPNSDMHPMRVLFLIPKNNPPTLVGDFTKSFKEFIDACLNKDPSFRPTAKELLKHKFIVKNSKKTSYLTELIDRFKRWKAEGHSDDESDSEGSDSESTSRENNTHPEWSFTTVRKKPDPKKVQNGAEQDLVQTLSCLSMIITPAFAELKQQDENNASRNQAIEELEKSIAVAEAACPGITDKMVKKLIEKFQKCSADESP

NUAK1 (human) = NUAK1 (human) (UniProt O60285)
PAK3 (human) = PAK3 (human) (UniProt O75914)
PAK4 (human) = PAK4 (human) (UniProt O96013)
PIM1 (human) = PIM1 (human) (UniProt P11309)
Chain of PIM1 (human) (P11309 whole entry, looked up): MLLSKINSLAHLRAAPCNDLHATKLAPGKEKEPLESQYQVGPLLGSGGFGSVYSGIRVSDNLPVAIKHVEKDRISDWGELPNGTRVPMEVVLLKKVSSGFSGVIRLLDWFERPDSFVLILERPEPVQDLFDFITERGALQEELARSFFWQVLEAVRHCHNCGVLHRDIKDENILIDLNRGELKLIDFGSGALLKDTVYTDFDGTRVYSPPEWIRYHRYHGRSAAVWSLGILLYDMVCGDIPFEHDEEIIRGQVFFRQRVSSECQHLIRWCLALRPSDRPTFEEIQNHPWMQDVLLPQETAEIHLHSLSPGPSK

PLK3 (human) = PLK3 (human) (UniProt Q9H4B4)
PLK4 (human) = PLK4 (human) (UniProt O00444)
PRKCE (human) = PRKCE (human) (UniProt Q02156)
Chain of PRKCE (human) (Q02156 whole entry, looked up): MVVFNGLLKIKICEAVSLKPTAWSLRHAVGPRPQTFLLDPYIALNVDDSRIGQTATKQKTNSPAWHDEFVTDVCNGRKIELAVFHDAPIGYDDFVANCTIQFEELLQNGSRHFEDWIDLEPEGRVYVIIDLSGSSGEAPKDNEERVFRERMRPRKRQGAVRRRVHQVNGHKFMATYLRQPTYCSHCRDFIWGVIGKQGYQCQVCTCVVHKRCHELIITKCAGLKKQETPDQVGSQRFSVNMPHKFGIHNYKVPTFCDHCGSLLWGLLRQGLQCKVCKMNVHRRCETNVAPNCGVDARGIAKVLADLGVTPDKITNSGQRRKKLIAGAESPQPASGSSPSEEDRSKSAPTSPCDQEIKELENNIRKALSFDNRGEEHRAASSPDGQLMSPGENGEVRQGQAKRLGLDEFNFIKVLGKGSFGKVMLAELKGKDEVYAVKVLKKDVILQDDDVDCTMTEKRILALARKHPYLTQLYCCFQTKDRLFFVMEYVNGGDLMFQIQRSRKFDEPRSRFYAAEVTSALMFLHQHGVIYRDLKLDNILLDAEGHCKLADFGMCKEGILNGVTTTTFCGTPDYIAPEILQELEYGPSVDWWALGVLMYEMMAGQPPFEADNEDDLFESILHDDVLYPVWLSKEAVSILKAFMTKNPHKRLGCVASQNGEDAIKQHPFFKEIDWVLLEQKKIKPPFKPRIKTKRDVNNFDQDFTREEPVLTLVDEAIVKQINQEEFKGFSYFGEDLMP

PRKCH (human) = PRKCH (human) (UniProt P24723)
PRKD3 (human) = PRKD3 (human) (UniProt O94806)
RIPK4 (human) = RIPK4 (human) (UniProt P57078)
RPS6KA2 KD1 (human) = RPS6KA2 KD1 (human) (UniProt Q15349)
SGK3 (human) = SGK3 (human) (UniProt Q96BR1)
SIK1 (human) = SIK1 (human) (UniProt P57059)
Chain of SIK1 (human) (P57059 whole entry, looked up): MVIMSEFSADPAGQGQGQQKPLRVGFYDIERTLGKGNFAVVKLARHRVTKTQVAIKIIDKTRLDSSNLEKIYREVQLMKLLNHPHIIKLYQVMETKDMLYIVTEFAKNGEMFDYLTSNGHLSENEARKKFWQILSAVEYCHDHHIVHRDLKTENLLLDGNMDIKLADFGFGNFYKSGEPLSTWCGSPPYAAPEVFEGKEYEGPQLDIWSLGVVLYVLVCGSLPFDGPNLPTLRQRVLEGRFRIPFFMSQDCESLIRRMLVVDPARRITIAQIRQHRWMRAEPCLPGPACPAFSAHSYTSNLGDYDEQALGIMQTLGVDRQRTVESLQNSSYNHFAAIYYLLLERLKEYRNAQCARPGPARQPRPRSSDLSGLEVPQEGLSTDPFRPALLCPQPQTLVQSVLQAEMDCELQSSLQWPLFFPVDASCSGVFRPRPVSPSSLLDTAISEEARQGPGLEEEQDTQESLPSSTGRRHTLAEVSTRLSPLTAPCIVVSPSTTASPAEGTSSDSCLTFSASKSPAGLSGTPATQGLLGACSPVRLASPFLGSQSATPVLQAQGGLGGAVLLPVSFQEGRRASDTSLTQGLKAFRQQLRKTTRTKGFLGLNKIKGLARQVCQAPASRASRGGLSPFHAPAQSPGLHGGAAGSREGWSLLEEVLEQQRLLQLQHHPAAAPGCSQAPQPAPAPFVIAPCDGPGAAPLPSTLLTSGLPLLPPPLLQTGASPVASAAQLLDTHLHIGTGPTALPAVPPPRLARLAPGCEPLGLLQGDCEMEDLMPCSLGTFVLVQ

TNIK (human) = TNIK (human) (UniProt Q9UKE5)

Chain of ACVR2A (human) (P27037 whole entry, looked up): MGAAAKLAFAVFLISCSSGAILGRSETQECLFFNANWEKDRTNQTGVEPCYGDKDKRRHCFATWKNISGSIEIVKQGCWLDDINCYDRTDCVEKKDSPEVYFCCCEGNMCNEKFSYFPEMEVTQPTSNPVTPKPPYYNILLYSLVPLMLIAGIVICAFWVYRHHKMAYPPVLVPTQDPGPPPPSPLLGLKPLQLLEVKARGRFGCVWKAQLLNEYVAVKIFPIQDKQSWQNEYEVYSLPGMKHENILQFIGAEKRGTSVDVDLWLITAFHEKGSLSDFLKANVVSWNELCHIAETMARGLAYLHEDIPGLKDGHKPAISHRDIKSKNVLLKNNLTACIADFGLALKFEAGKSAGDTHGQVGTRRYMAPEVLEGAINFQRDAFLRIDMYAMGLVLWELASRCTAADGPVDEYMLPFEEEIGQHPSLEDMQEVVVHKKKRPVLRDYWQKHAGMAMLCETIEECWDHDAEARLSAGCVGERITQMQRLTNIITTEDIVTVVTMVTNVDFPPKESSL
Chain of ALK (human) (Q9UM73 whole entry, looked up): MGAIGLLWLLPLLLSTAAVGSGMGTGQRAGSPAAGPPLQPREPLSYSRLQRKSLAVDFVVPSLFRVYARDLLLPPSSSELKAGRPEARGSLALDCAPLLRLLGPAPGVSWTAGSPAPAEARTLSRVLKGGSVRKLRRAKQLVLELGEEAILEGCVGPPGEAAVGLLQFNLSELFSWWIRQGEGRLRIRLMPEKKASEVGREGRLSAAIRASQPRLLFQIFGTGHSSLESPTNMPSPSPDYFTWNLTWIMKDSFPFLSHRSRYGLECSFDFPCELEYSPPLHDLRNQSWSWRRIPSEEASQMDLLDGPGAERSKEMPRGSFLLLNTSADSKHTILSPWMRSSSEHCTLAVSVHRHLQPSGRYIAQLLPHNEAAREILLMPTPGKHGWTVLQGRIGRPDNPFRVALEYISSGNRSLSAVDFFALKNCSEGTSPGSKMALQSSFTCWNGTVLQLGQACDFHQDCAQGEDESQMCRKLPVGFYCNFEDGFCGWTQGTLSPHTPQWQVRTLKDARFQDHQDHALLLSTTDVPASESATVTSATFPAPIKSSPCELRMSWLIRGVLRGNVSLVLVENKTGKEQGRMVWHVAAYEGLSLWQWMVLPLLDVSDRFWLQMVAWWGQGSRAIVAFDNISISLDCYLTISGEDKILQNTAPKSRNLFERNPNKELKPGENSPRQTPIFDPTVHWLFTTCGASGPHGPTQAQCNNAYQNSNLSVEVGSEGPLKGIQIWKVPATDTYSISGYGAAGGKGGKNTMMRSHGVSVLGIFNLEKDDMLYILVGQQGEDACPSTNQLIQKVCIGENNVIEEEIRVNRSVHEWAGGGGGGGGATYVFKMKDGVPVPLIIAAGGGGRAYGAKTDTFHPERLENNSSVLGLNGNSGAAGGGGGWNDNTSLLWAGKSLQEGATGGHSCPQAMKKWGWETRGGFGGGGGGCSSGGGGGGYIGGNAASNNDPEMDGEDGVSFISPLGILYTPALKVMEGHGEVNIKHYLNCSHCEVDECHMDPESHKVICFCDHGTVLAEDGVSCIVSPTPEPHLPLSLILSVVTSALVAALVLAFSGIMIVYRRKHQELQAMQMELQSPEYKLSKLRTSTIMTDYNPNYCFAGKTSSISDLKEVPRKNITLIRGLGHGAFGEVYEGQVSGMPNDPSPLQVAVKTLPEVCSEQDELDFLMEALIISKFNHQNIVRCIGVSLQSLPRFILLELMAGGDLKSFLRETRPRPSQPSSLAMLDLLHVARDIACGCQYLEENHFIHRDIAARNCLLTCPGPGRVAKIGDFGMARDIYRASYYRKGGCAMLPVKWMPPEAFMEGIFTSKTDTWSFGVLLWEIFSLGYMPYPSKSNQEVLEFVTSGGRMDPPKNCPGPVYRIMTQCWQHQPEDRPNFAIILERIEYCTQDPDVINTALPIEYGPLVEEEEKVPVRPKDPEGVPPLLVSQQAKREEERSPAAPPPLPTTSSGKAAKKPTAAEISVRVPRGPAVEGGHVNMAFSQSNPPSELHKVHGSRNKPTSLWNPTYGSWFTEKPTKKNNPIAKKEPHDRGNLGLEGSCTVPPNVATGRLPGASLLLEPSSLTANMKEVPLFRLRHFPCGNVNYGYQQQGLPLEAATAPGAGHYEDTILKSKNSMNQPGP

Row | Structure (SMILES) | kinase still bound, per cent of control (ACVR1 (human)) | kinase still bound, per cent of control (ACVR1B (human)) | kinase still bound, per cent of control (ACVR2A (human)) | kinase still bound, per cent of control (AKT2 (human)) | kinase still bound, per cent of control (ALK (human)) | kinase still bound, per cent of control (BMPR1A (human)) | kinase still bound, per cent of control (CAMKK2 (human)) | kinase still bound, per cent of control (CDK5 (human)) | kinase still bound, per cent of control (CHUK (human)) | kinase still bound, per cent of control (DMPK (human)) | kinase still bound, per cent of control (DYRK1A (human)) | kinase still bound, per cent of control (EIF2AK1 (human)) | kinase still bound, per cent of control (ERBB3 (human)) | kinase still bound, per cent of control (FGFR1 (human)) | kinase still bound, per cent of control (FLT3 (human)) | kinase still bound, per cent of control [1] | kinase still bound, per cent of control (GAK (human)) | kinase still bound, per cent of control (HIPK3 (human)) | kinase still bound, per cent of control (INSR (human)) | kinase still bound, per cent of control [2] | also measured
1 | O=c1cc(N2CCOCC2)oc2c(-c3cccc4c3sc3ccccc34)cccc12 | 91% | 91% | 96% | 51% | 100% | 94% | 88% | 100% | 100% | 89% | 61% | 100% | 72% | 93% | 100% | 100% | 89% | 92% | 66% | 100% | kinase still bound, per cent of control (AURKB (human)): 100%; kinase still bound, per cent of control (GSK3B (human)): 44%; kinase still bound, per cent of control (LATS2 (human)): 100%; kinase still bound, per cent of control (MAP3K1 (human)): 100%; kinase still bound, per cent of control (MAP3K5 (human)): 100%; kinase still bound, per cent of control (MST4 (human)): 95%; kinase still bound, per cent of control (NUAK1 (human)): 100%; kinase still bound, per cent of control (PAK3 (human)): 100%; kinase still bound, per cent of control (PAK4 (human)): 80%; kinase still bound, per cent of control (PIM1 (human)): 62%; kinase still bound, per cent of control (PLK3 (human)): 86%; kinase still bound, per cent of control (PLK4 (human)): 90%; kinase still bound, per cent of control (PRKCE (human)): 100%; kinase still bound, per cent of control (PRKCH (human)): 100%; kinase still bound, per cent of control (PRKD3 (human)): 100%; kinase still bound, per cent of control (RIPK4 (human)): 100%; kinase still bound, per cent of control (RPS6KA2 KD1 (human)): 97%; kinase still bound, per cent of control (SGK3 (human)): 100%; kinase still bound, per cent of control (SIK1 (human)): 100%; kinase still bound, per cent of control (TNIK (human)): 100%
2 | CNC(=O)c1cc(Oc2ccc(NC(=O)Nc3ccc(Cl)c(C(F)(F)F)c3)cc2)ccn1 | 100% | 92% | 100% | 70% | 69% | 100% | 72% | 39% | 81% | 100% | 100% | 57% | 100% | 5.2% | 0.45% | 50% | 80% | 0.6% | 100% | 50% | kinase still bound, per cent of control (GSK3B (human)): 100%; kinase still bound, per cent of control (LATS2 (human)): 85%; kinase still bound, per cent of control (MAP3K1 (human)): 64%; kinase still bound, per cent of control (MAP3K5 (human)): 90%; kinase still bound, per cent of control (MST4 (human)): 100%; kinase still bound, per cent of control (NUAK1 (human)): 84%; kinase still bound, per cent of control (PAK3 (human)): 40%; kinase still bound, per cent of control (PAK4 (human)): 91%; kinase still bound, per cent of control (PIM1 (human)): 98%; kinase still bound, per cent of control (PLK4 (human)): 28%; kinase still bound, per cent of control (PRKCE (human)): 86%; kinase still bound, per cent of control (PRKCH (human)): 100%; kinase still bound, per cent of control (PRKD3 (human)): 67%; kinase still bound, per cent of control (RIPK4 (human)): 92%; kinase still bound, per cent of control (RPS6KA2 KD1 (human)): 55%; kinase still bound, per cent of control (SGK3 (human)): 82%; kinase still bound, per cent of control (SIK1 (human)): 100%; kinase still bound, per cent of control (TNIK (human)): 27%
3 | N#CCNC(=O)c1ccc(-c2ccnc(Nc3ccc(N4CCOCC4)cc3)n2)cc1 | 0.95% | 38% | 75% | 76% | 100% | 3.6% | 51% | 100% | 0% | 37% | 66% | 100% | 100% | 86% | 100% | 100% | 3.4% | 17% | 57% | 13% | kinase still bound, per cent of control (AURKB (human)): 69%; kinase still bound, per cent of control (LATS2 (human)): 74%; kinase still bound, per cent of control (MAP3K1 (human)): 92%; kinase still bound, per cent of control (MAP3K5 (human)): 100%; kinase still bound, per cent of control (MST4 (human)): 83%; kinase still bound, per cent of control (NUAK1 (human)): 45%; kinase still bound, per cent of control (PAK3 (human)): 73%; kinase still bound, per cent of control (PAK4 (human)): 100%; kinase still bound, per cent of control (PIM1 (human)): 100%; kinase still bound, per cent of control (PLK3 (human)): 11%; kinase still bound, per cent of control (PLK4 (human)): 15%; kinase still bound, per cent of control (PRKCE (human)): 59%; kinase still bound, per cent of control (PRKD3 (human)): 65%; kinase still bound, per cent of control (RIPK4 (human)): 100%; kinase still bound, per cent of control (RPS6KA2 KD1 (human)): 100%; kinase still bound, per cent of control (SGK3 (human)): 59%; kinase still bound, per cent of control (SIK1 (human)): 62%; kinase still bound, per cent of control (TNIK (human)): 59%
